{"source": "patent US20210330611A1", "about": "“THERAPY FOR NEUROLOGICAL DISEASES/DISORDERS” (priority 2020, published 2021)", "key": {"primary rat microglia [1]": {"system": "primary rat microglia"}, "[2]": {"system": "fibrin- and LPS-induced microglia activation", "test": "cells", "assay_type": "cell-based, rat"}, "primary rat microglia [3]": {"system": "primary rat microglia", "remark": "listed apart in the source"}, "[4]": {"system": "LPS-induced microglia activation", "test": "Image-based assay of LPS-induced microglia activation (HTS and dose response)", "assay_type": "cell-based, rat", "details": "for inhibition at 10 µM: Rattus norvegicus, Microglia, read-out: LPS % inhibition"}, "[5]": {"system": "fibrin-induced microglia activation", "test": "Image-based assay of fibrin-induced microglia activation (HTS and dose response)", "assay_type": "cell-based, rat", "details": "for inhibition at 10 µM: Rattus norvegicus, Microglia, read-out: Fibrin % inhibition"}, "[6]": {"details": "quadrant by fibrin and LPS inhibition in HTS of 1907 compounds"}, "[7]": {"details": "primary microglia HTS, fibrin stimulation, activation = cell size >800 μm2"}, "[8]": {"details": "HTS of 1907 compounds, quadrant by fibrin and LPS inhibition"}, "[9]": {"details": "primary microglia HTS, 10 μM, LPS-stimulated, cell size >800 μm^2 as marker of activation"}, "[10]": {"details": "primary microglia HTS, 10 μM, fibrin-stimulated, cell size >800 μm^2 as marker of activation"}, "[11]": {"details": "primary HTS, 10 μM, LPS-stimulated primary microglia"}, "[12]": {"details": "primary HTS, 10 μM, fibrin-stimulated primary microglia"}, "[13]": {"details": "48 h, primary microglia HTS, LPS stimulation, increased cell size (>800 μm^2) as marker of activation"}, "[14]": {"details": "primary microglia HTS, fibrin stimulation, increased cell size (>800 μm^2) as marker of activation"}, "[15]": {"details": "primary microglia HTS, LPS stimulation, compounds at 10 μM"}, "[16]": {"details": "primary microglia HTS, fibrin stimulation, compounds at 10 μM"}, "[17]": {"details": "classification by fibrin and LPS inhibition in HTS"}, "[18]": {"details": "primary microglia HTS, fibrin stimulation, cell size >800 μm2 as marker of activation"}}, "note": "Read-outs that look alike come from different tables or passages of the source.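 Wherever Fibrin % cell toxicity is given: share of dead cells sized under 150 µm2 at 10 µM in fibrin-stimulated microglia HTS.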"}
{"smiles": "N[C@@H](CC(=O)O)C(=O)O", "note": "[L-aspartic Acid, Aspartic Acid (I)]", "values": [{"measurement": "LPS % cell toxicity", "setting": "primary rat microglia [1]", "result": 1, "unit": "%"}, {"measurement": "Quadrant (FIG. 5b)", "setting": "[2]; [6]", "result": "Q4"}, {"measurement": "Fibrin % cell toxicity", "setting": "primary rat microglia [3]", "result": 1, "unit": "%"}, {"measurement": "LPS % inhibition", "setting": "[4]; primary microglia HTS, LPS stimulation, activation = cell size >800 μm2", "result": 13, "unit": "%"}, {"measurement": "Fibrin % inhibition", "setting": "[5]; [7]", "result": 5, "unit": "%"}]}
{"smiles": "CC1=C(CC(=O)O)c2cc(F)ccc2/C1=C\\c1ccc([S+](C)[O-])cc1", "note": "(centres unmarked) [Sulindac]", "values": [{"measurement": "LPS % cell toxicity", "setting": "primary rat microglia [1]; rat", "result": 0, "unit": "%"}, {"measurement": "Quadrant (FIG. 5b)", "setting": "[2]; [8]", "result": "Q4"}, {"measurement": "Fibrin % cell toxicity", "setting": "primary rat microglia [3]; rat", "result": 1, "unit": "%"}, {"measurement": "inhibition at 10 µM", "setting": "[4]; [9]", "result": 6, "unit": "%"}, {"measurement": "inhibition at 10 µM", "setting": "[5]; [10]", "result": 21, "unit": "%"}]}
{"smiles": "O=C(O)CCCc1ccc(N(CCCl)CCCl)cc1", "note": "[Chlorambucil]", "values": [{"measurement": "LPS % cell toxicity", "setting": "primary rat microglia [1]; rat", "result": 0, "unit": "%"}, {"measurement": "Quadrant (FIG. 5b)", "setting": "[2]; primary HTS, 10 μM", "result": "Q4"}, {"measurement": "Fibrin % cell toxicity", "setting": "primary rat microglia [3]; rat", "result": 1, "unit": "%"}, {"measurement": "inhibition at 10 µM", "setting": "[4]; [11]", "result": -7, "unit": "%"}, {"measurement": "inhibition at 10 µM", "setting": "[5]; [12]", "result": 8, "unit": "%"}]}
{"smiles": "CNCC[C@H](Oc1cccc2ccccc12)c1cccs1", "note": "[Duloxetine]", "values": [{"measurement": "LPS % cell toxicity", "setting": "primary rat microglia [1]; rat", "result": 0, "unit": "%"}, {"measurement": "Quadrant (FIG. 5b)", "setting": "[2]", "result": "Q4"}, {"measurement": "Fibrin % cell toxicity", "setting": "primary rat microglia [3]; rat", "result": 0, "unit": "%"}, {"measurement": "inhibition at 10 µM", "setting": "[4]", "result": 24, "unit": "%"}, {"measurement": "inhibition at 10 µM", "setting": "[5]", "result": 22, "unit": "%"}]}
{"smiles": "CCN(CC)C(=S)SSC(=S)N(CC)CC", "note": "[Disulfiram]", "values": [{"measurement": "LPS % cell toxicity", "setting": "primary rat microglia [1]; rat", "result": 75, "unit": "%"}, {"measurement": "Quadrant (FIG. 5b)", "setting": "[2]; [6]", "result": "Q2"}, {"measurement": "Fibrin % cell toxicity", "setting": "primary rat microglia [3]; rat", "result": 90, "unit": "%"}, {"measurement": "inhibition at 10 µM", "setting": "[4]; [13]", "result": 131, "unit": "%"}, {"measurement": "inhibition at 10 µM", "setting": "[5]; [14]", "result": 114, "unit": "%"}]}
{"smiles": "CC(C)NCC(O)c1ccc(O)c(O)c1", "note": "(centres unmarked) [Isoprenaline]", "values": [{"measurement": "LPS % cell toxicity", "setting": "primary rat microglia [1]; rat", "result": 0, "unit": "%"}, {"measurement": "Quadrant (FIG. 5b)", "setting": "[2]; [6]", "result": "Q4"}, {"measurement": "Fibrin % cell toxicity", "setting": "primary rat microglia [3]; rat", "result": 0, "unit": "%"}, {"measurement": "inhibition at 10 µM", "setting": "[4]; 48 h, primary microglia HTS, LPS stimulation, activation = cell size >800 μm2", "result": 37, "unit": "%"}, {"measurement": "inhibition at 10 µM", "setting": "[5]; [7]", "result": 29, "unit": "%"}]}
{"smiles": "CN(C)CC[C@@H](c1ccc(Cl)cc1)c1ccccn1", "note": "[Dexchlorpheniramine]", "values": [{"measurement": "LPS % cell toxicity", "setting": "primary rat microglia [1]; rat", "result": 0, "unit": "%"}, {"measurement": "Quadrant (FIG. 5b)", "setting": "[2]", "result": "Q4"}, {"measurement": "Fibrin % cell toxicity", "setting": "primary rat microglia [3]; rat", "result": 1, "unit": "%"}, {"measurement": "inhibition at 10 µM", "setting": "[4]; [15]", "result": 11, "unit": "%"}, {"measurement": "inhibition at 10 µM", "setting": "[5]; [16]", "result": -8, "unit": "%"}]}
{"smiles": "Nc1nc(N)c2nc(-c3ccccc3)c(N)nc2n1", "note": "[Triamterene]", "values": [{"measurement": "LPS % cell toxicity", "setting": "primary rat microglia [1]; rat", "result": 0, "unit": "%"}, {"measurement": "Quadrant (FIG. 5b)", "setting": "[2]; [8]", "result": "Q4"}, {"measurement": "Fibrin % cell toxicity", "setting": "primary rat microglia [3]; rat", "result": 1, "unit": "%"}, {"measurement": "inhibition at 10 µM", "setting": "[4]; [9]", "result": 24, "unit": "%"}, {"measurement": "inhibition at 10 µM", "setting": "[5]; [10]", "result": 40, "unit": "%"}]}
{"smiles": "CC1=C(/C=C/C(C)=C/C=C/C(C)=C\\C(=O)O)C(C)(C)CCC1", "note": "[Isotretinoin]", "values": [{"measurement": "LPS % cell toxicity", "setting": "primary rat microglia [1]; rat", "result": 1, "unit": "%"}, {"measurement": "Quadrant (FIG. 5b)", "setting": "[2]; [6]", "result": "Q2"}, {"measurement": "Fibrin % cell toxicity", "setting": "primary rat microglia [3]; rat", "result": 13, "unit": "%"}, {"measurement": "inhibition at 10 µM", "setting": "[4]; [13]", "result": 55, "unit": "%"}, {"measurement": "inhibition at 10 µM", "setting": "[5]; [14]", "result": 112, "unit": "%"}]}
{"smiles": "OC[C@@H](O)[C@H]1O[C@@H]2O[C@H](C(Cl)(Cl)Cl)O[C@@H]2[C@H]1O", "note": "[Chloralose]", "values": [{"measurement": "LPS % cell toxicity", "setting": "primary rat microglia [1]; rat", "result": 0, "unit": "%"}, {"measurement": "Quadrant (FIG. 5b)", "setting": "[2]", "result": "Q4"}, {"measurement": "Fibrin % cell toxicity", "setting": "primary rat microglia [3]; rat", "result": 1, "unit": "%"}, {"measurement": "inhibition at 10 µM", "setting": "[4]", "result": 9, "unit": "%"}, {"measurement": "inhibition at 10 µM", "setting": "[5]", "result": -14, "unit": "%"}]}
{"smiles": "C=C[C@H]1C[N@@]2CC[C@H]1C[C@@H]2[C@@H](O)c1ccnc2ccc(OC)cc12", "note": "[Quinidine]", "values": [{"measurement": "LPS % cell toxicity", "setting": "primary rat microglia [1]; rat", "result": 0, "unit": "%"}, {"measurement": "Quadrant (FIG. 5b)", "setting": "[2]; [17]", "result": "Q4"}, {"measurement": "Fibrin % cell toxicity", "setting": "primary rat microglia [3]; rat", "result": 1, "unit": "%"}, {"measurement": "inhibition at 10 µM", "setting": "[4]; 48 h", "result": 20, "unit": "%"}, {"measurement": "inhibition at 10 µM", "setting": "[5]; [18]", "result": -6, "unit": "%"}]}
{"smiles": "Cc1ccc(C(=O)c2cc(O)c(O)c([N+](=O)[O-])c2)cc1", "note": "[Tolcapone]", "values": [{"measurement": "LPS % cell toxicity", "setting": "primary rat microglia [1]; rat", "result": 0, "unit": "%"}, {"measurement": "Quadrant (FIG. 5b)", "setting": "[2]; [8]", "result": "Q4"}, {"measurement": "Fibrin % cell toxicity", "setting": "primary rat microglia [3]; rat", "result": 1, "unit": "%"}, {"measurement": "inhibition at 10 µM", "setting": "[4]; [9]", "result": 9, "unit": "%"}, {"measurement": "inhibition at 10 µM", "setting": "[5]; [10]", "result": -43, "unit": "%"}]}
{"smiles": "CCCCCCCCCCCCCCCC(=O)OC/C=C(C)/C=C/C=C(C)/C=C/C1=C(C)CCCC1(C)C", "note": "[Retinyl Palmitate]", "values": [{"measurement": "LPS % cell toxicity", "setting": "primary rat microglia [1]; rat", "result": 0, "unit": "%"}, {"measurement": "Quadrant (FIG. 5b)", "setting": "[2]; [17]", "result": "Q4"}, {"measurement": "Fibrin % cell toxicity", "setting": "primary rat microglia [3]; rat", "result": 0, "unit": "%"}, {"measurement": "inhibition at 10 µM", "setting": "[4]; 48 h", "result": 11, "unit": "%"}, {"measurement": "inhibition at 10 µM", "setting": "[5]; [18]", "result": -15, "unit": "%"}]}
{"smiles": "OC(CCN1CCCCC1)(c1ccccc1)C1CCCCC1", "note": "(centres unmarked) [Trihexyphenidyl]", "values": [{"measurement": "LPS % cell toxicity", "setting": "primary rat microglia [1]; rat", "result": 1, "unit": "%"}, {"measurement": "Quadrant (FIG. 5b)", "setting": "[2]", "result": "Q4"}, {"measurement": "Fibrin % cell toxicity", "setting": "primary rat microglia [3]; rat", "result": 1, "unit": "%"}, {"measurement": "inhibition at 10 µM", "setting": "[4]", "result": 14, "unit": "%"}, {"measurement": "inhibition at 10 µM", "setting": "[5]", "result": 5, "unit": "%"}]}
{"smiles": "CCOC(=O)[C@H](CCc1ccccc1)N[C@@H](C)C(=O)N1CCC[C@H]1C(=O)O", "note": "[Enalapril]", "values": [{"measurement": "LPS % cell toxicity", "setting": "primary rat microglia [1]; rat", "result": 1, "unit": "%"}, {"measurement": "Quadrant (FIG. 5b)", "setting": "[2]; classification by fibrin and LPS inhibition, HTS at 10 μM", "result": "Q4"}, {"measurement": "Fibrin % cell toxicity", "setting": "primary rat microglia [3]; rat", "result": 1, "unit": "%"}, {"measurement": "inhibition at 10 µM", "setting": "[4]; [15]", "result": 6, "unit": "%"}, {"measurement": "inhibition at 10 µM", "setting": "[5]; [16]", "result": 24, "unit": "%"}]}
{"smiles": "CC(C)COCC(CN(Cc1ccccc1)c1ccccc1)N1CCCC1", "note": "(centres unmarked) [Bepridil]", "values": [{"measurement": "LPS % cell toxicity", "setting": "primary rat microglia [1]; rat", "result": 0, "unit": "%"}, {"measurement": "Quadrant (FIG. 5b)", "setting": "[2]; primary HTS, 10 μM", "result": "Q4"}, {"measurement": "Fibrin % cell toxicity", "setting": "primary rat microglia [3]; rat", "result": 1, "unit": "%"}, {"measurement": "inhibition at 10 µM", "setting": "[4]; [11]", "result": 15, "unit": "%"}, {"measurement": "inhibition at 10 µM", "setting": "[5]; [12]", "result": 1, "unit": "%"}]}
